Biological target: human cannabinoid receptor 2 (hCB2R) (Homo sapiens, UniProt P34972)
Format: binding

Chain of human cannabinoid receptor 2 (hCB2R) (P34972 whole entry): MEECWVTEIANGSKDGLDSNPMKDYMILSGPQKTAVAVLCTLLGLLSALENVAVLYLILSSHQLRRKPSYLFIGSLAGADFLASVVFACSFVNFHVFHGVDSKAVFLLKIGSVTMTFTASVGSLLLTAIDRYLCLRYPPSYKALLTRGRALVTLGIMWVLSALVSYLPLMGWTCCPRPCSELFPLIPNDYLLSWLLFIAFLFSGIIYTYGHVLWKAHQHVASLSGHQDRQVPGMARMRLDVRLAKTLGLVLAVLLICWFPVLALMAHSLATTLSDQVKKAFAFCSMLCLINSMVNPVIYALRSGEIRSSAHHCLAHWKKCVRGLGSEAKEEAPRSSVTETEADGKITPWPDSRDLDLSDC

For `CC(C)(CCCCCCN=C=S)c1cc(O)c2c(c1)OC(C)(C)[C@H]1CC[C@@H](CO)C[C@@H]21` [AM-841], the “% (TMH6 covalently modified)” value was ~ 75 % (TMH6 covalently modified).
